Measurements as given in patent US9884843B2 (Peloton Therapeutics, Inc., priority 2013, dated 2018).
“Also recorded” adds a separate entry of the source.

What was measured:
human VEGFA = assay: In vivo PK/PD study: plasma human VEGFA by ELISA; design: species or system SCID/Biege mice; conditions: 786-O tumor-bearing mice, 10 mg/kg oral gavage three times at 12 hour intervals
Protocol: (§1) About 5×10^6 renal cell carcinoma 786-O tumor cells (ATCC® CRL-1932™, VHL and HIF-1α null cell line) in PBS and Matrigel (1:1 in volume) were injected subcutaneously in the right flanks of SCID/Biege mice at 6-7 weeks of age for xenograft development. When the xenografts reached about 450 mm^3 in size, the tumor-bearing mice were randomly divided into two groups (4 mice in each group). […] Animals were sacrificed at 12 hours post last dose. Tumors and plasma were collected from each animal. Total RNA was extracted from the tumors. The mRNA levels of HIF-2α and its respective target genes were determined by qRT-PCR.
The plasma level of human VEGFA was determined by ELISA assay.

786-O-Hif-Luc cells = assay: Luciferase Assay (HIF responsive element reporter); type: cell-based; conditions: 786-O-Hif-Luc cells, about 24 hours; read-out: Mean Luciferease EC50
Protocol: A pool of infected cells were then selected against 2 μg/mL of puromycin (P8833, Sigma) for 10 days followed by limited dilution to select single clones.
Each concentration was tested in triplicate. After about 24 hours, luciferase activity was determined using ONE-Glo Luciferase Assay Reagent (E6110, Promega) following the manufacturer's recommended procedure. EC50 were calculated by using Dotmatics software.

[1] = tested on: renal cell carcinoma 786-O xenograft; assay: In vivo efficacy study, 786-O xenograft; design: species or system SCID/Biege mice
[2] = tested on: HIF-2α and HIF-2α-regulated genes in 786-O xenograft; assay: In vivo PK/PD study: tumor mRNA levels by qRT-PCR; design: species or system SCID/Biege mice; conditions: 786-O xenograft mice, 10 mg/kg oral gavage three times at 12 hour intervals, 12 hours post last dose
Protocol: as §1

[3] = tested on: HIF-2α HIS TAG-PASB Domain; assay: biochemical; type: binding; conditions: displacement of Compound 120 probe; mean; read-out: Mean SPA IC50
How it was run: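 Scintillation proximity assay with His-tagged protein bound to SPA beads; test compounds in DMSO displace a tritium-labelled probe ligand, lowering bead light emission. Percent inhibition calculated against high and low controls, with IC50 fitted from it.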

Structure (SMILES): N#Cc1cc(F)cc(Oc2ccc3c(c2C(F)F)[C@@H](O)C(F)(F)S3(=O)=O)c1 [Compound 3, (R)-3-((4-(Difluoromethyl)-2,2-difluoro-3-hydroxy-1,1-dioxido-2,3-dihydrobenzo[b]thiophen-5-yl)oxy)-5-fluorobenzonitrile]
- Plasma level of human VEGFA (human VEGFA): reduced; also recorded: undetectable level
- EC50 (786-O-Hif-Luc cells): 7 nM
- Effect on tumor size ([1]; 10 mg/kg b.i.d. oral gavage for 21 days, versus vehicle): tumor size reduction and regression; also recorded: statistically significant reduction of tumor size
- Tumor size Mean ± SEM ([1]; 10 mg/kg b.i.d. oral gavage, after 21 days of dosing): 57 ± 5.6 mm^3
- Tumor mRNA for HIF-1α and HIF-1α specific target genes (PGK1 and PDK1) [2]: no significant effect; also recorded: no significant changes
- Tumor mRNA for HIF-2α and HIF-2α specific target genes (PAI-1 and CCND1) [2]: reduced; also recorded: significant reduction
